# Source: patent US20220030882A1, “Composition and Method to Remove Parasites From Fish and to Prevent or Treat Infestation or Infection of Parasites on Fish” (priority 2018, published 2022)
# Experiments:
# salmon lice = system: salmon lice; parameters: species or system Lepeophteirus salmonis; settings: in vivo
# [1] = cited from earlier work
smiles,measurement,setting,value
COc1cc(CNC(=O)CCCC/C=C/C(C)C)ccc1O [capsaicin],effect on the lice,salmon lice,has an effect
same,sum of the effects on lice of each agent on its own versus the combination of capsaicin and acetic acid,salmon lice,considerably lower
same,solubility in ethanol and other hydrophobic solvents,[1]; pure capsaicin,soluble
same,solubility in water,[1]; water,not soluble
